Data published in patent US10322191B2, “Targeted conjugates and particles and formulations thereof” (TARVEDA THERAPEUTICS, INC., priority 2014, dated 2019).
Where two headings read alike, the source gives them in different places. Bridge positions count the residues as written; N and C are the ends. Square brackets hold non-standard residues; d marks the D form. Peptide text beside a SMILES is read from it. * marks the point of attachment. X1 = COc1cc2cc(c1Cl)N(C)C(=O)C[C@H](OC(=O)[C@H](C)N(C)C(=O)CCS*)[C@]1(C)O[C@H]1[C@H](C)[C@@H]1C[C@@](O)(NC(=O)O1)[C@H](OC)/C=C/C=C(\C)C2; Thr(ol) = C[C@@H](O)[C@H](N)CO

Test system: NCI-H524 (ATCC) human lung cancer cells
Format: cell-based
Experimental: Conjugates were assessed in an in vitro assay evaluating inhibition of cell proliferation. NCI-H524 (ATCC) human lung cancer cells were plated in 96 well, V-bottomed plates (Costar) at a concentration of 5,000 cells/well and 24 hours later were treated with compound for 2 hours and further incubated 70 hours. Compound starting dose was 20 μM and three-fold serial dilutions were done for a total of ten points. After 2 hours of treatment, cells were spun down, the drug containing media was removed, and fresh complete medium was added and used to resuspend the cells, which were spun again. After removal of the wash media, the cells were resuspended in complete medium, then transferred into white walled, flat bottomed 96 well plates. […] Proliferation was measured using CellTiter Glo reagent using the standard protocol (Promega) and a Glomax multi+detection system (Promega). Percent proliferation inhibition was calculated using the following formula: % inhibition=(control-treatment)/control*100. Control is defined as vehicle alone. IC50 curves were generated using the nonlinear regression analysis (four parameter) with GraphPad Prism 6.
Conjugates of the present invention were assessed in an in vitro assay evaluating inhibition of cell proliferation. NCI-H524 (ATCC) human lung cancer cells were plated in 96 well, V-bottomed plates (Costar) at a concentration of 5,000 cells/well. 24 hours later, cells were treated with either conjugate for 2 hours and further incubated 70 hours, or for octreotide competition experiments, treated with 100 μM octreotide for 30 min, and then treated with conjugate for 2 hours, and further incubated for 70 hours. Conjugate starting dose was 20 μM and three fold serial dilutions were done for a total of ten points. After 2 hours of treatment, cells were spun down, the drug containing media was removed, and fresh complete medium was added and used to resuspend the cells, which were spun again. After removal of the wash media, the cells were resuspended in complete medium, then transferred into white walled, flat bottomed 96 well plates. […] Proliferation was measured using CellTiter Glo reagent using the standard protocol (Promega) and a Glomax multi+detection system (Promega). Percent proliferation inhibition was calculated using the following formula: % inhibition=(control-treatment)/control*100. Control is defined as vehicle alone. IC50 curves were generated using the nonlinear regression analysis (four parameter) with GraphPad Prism 6.
Conjugates of the present invention were tested for their activity dependence on the somatostatin receptor. Active agent Z in the conjugate was selected from auristatin, carbazitaxel, DM1, doxorubicin, platinum, SN-38 and vinblastine. Active agent Z is connected to octreotide with various linkers. Proliferation IC50 values of the conjugates were measured. Proliferation IC50 values of the conjugates without octreotide competition were also measured. The ratio of IC50 with octreotide competition and IC50 without octreotide competition is an indicator of whether activity is at least partially dependent on bind to the somatostatin receptor.

[1] = Table 6, treated 2 hours, further incubated 70 hours, read-out: H524 IC50
[2] = read-out: H524 IC50 + 100 μM octreotide, Table 6, with octreotide competition
[3] = read-out: H524 IC50+ 100 uM octreotide, Table 15, 100 μM octreotide for 30 min, then conjugate 2 hours, 70 hours incubation
[4] = Table 15, treated 2 hours, further incubated 70 hours, read-out: H524 IC50

SMILES | IC50 [1] | IC50 [2] | IC50 [3] | IC50 [4]
CC[C@H](C)[C@@H]([C@@H](CC(=O)N1CCC[C@H]1[C@H](OC)[C@@H](C)C(=O)N[C@H](C)[C@@H](O)c1ccccc1)OC)N(C)C(=O)[C@@H](NC(=O)[C@H](C(C)C)N(C)C(=O)OCc1ccc(NC(=O)[C@H](CCCNC(N)=O)NC(=O)[C@@H](NC(=O)CCCCCN2C(=O)CC(SCCC(=O)N[C@H](Cc3ccccc3)C(=O)N[C@H]3CSSC[C@@H](C(=O)N[C@H](CO)[C@@H](C)O)NC(=O)[C@H]([C@@H](C)O)NC(=O)[C@H](CCCCN)NC(=O)[C@@H](Cc4c[nH]c5ccccc45)NC(=O)[C@H](Cc4ccccc4)NC3=O)C2=O)C(C)C)cc1)C(C)C (stereo partly drawn) [Conjugate 5] | 433 nM | 826 nM |  | 
COc1cc2cc(c1Cl)N(C)C(=O)C[C@H](OC(=O)[C@H](C)N(C)C(=O)CCSSCCC(=O)NCCOCCOCCOCCOCCOCCOCCOCCOCCC(=O)N[C@H](Cc1ccccc1)C(=O)N[C@H]1CSSC[C@@H](C(=O)N[C@H](CO)[C@@H](C)O)NC(=O)[C@H]([C@@H](C)O)NC(=O)[C@H](CCCCN)NC(=O)[C@@H](Cc3c[nH]c4ccccc34)NC(=O)[C@H](Cc3ccccc3)NC1=O)[C@]1(C)O[C@H]1[C@H](C)[C@@H]1C[C@@](O)(NC(=O)O1)[C@H](OC)/C=C/C=C(\C)C2 [Conjugate 6] | 234 nM | 629 nM | 629 nM | 
COc1cc2cc(c1Cl)N(C)C(=O)C[C@H](OC(=O)[C@H](C)N(C)C(=O)CCSSC[C@H](N)C(=O)N[C@@H](CCCCN)C(=O)N[C@@H](CCCCN)C(=O)N[C@@H](CCCCN)C(=O)N[C@@H](CCCCN)C(=O)N[C@H](Cc1ccccc1)C(=O)N[C@H]1CSSC[C@@H](C(=O)N[C@H](CO)[C@@H](C)O)NC(=O)[C@H]([C@@H](C)O)NC(=O)[C@H](CCCCN)NC(=O)[C@@H](Cc3c[nH]c4ccccc34)NC(=O)[C@H](Cc3ccccc3)NC1=O)[C@]1(C)O[C@H]1[C@H](C)[C@@H]1C[C@@](O)(NC(=O)O1)[C@H](OC)/C=C/C=C(\C)C2 [Conjugate 7] (H-C(X1)KKKK[dF]CF[dW]KTC[Thr(ol)]; disulfide 7-12) | 955 nM | 1770 nM | 1770 nM | 
COc1cc2cc(c1Cl)N(C)C(=O)C[C@H](OC(=O)[C@H](C)N(C)C(=O)CCSC1CC(=O)N(CCCNC(=O)CC[C@H]3C(=O)N[C@@H](Cc4ccc(O)cc4)C(=O)N[C@H](Cc4c[nH]c5ccccc45)C(=O)N[C@@H](CCCCN)C(=O)N[C@@H]([C@@H](C)O)C(=O)N[C@@H](Cc4ccccc4)C(=O)N3C)C1=O)[C@]1(C)O[C@H]1[C@H](C)[C@@H]1C[C@@](O)(NC(=O)O1)[C@H](OC)/C=C/C=C(\C)C2 (stereo partly drawn) [Conjugate 12] |  |  | 2340 nM | 1680 nM
COc1cc2cc(c1Cl)N(C)C(=O)C[C@H](OC(=O)[C@H](C)N(C)C(=O)CCSSCCC(=O)N1CCN(C(=O)CC[C@H]3C(=O)N[C@@H](Cc4ccc(O)cc4)C(=O)N[C@H](Cc4c[nH]c5ccccc45)C(=O)N[C@@H](CCCCN)C(=O)N[C@@H]([C@@H](C)O)C(=O)N[C@@H](Cc4ccccc4)C(=O)N3C)CC1)[C@]1(C)O[C@H]1[C@H](C)[C@@H]1C[C@@](O)(NC(=O)O1)[C@H](OC)/C=C/C=C(\C)C2 [Conjugate 26] |  |  | 1160 nM | 787 nM
COc1cc2cc(c1Cl)N(C)C(=O)C[C@H](OC(=O)[C@H](C)N(C)C(=O)CCSSC1CCN(C(=O)CC[C@H]3C(=O)N[C@@H](Cc4ccc(O)cc4)C(=O)N[C@H](Cc4c[nH]c5ccccc45)C(=O)N[C@@H](CCCCN)C(=O)N[C@@H]([C@@H](C)O)C(=O)N[C@@H](Cc4ccccc4)C(=O)N3C)CC1)[C@]1(C)O[C@H]1[C@H](C)[C@@H]1C[C@@](O)(NC(=O)O1)[C@H](OC)/C=C/C=C(\C)C2 [Conjugate 28] |  |  | 1000 nM | 669 nM
COc1cc2cc(c1Cl)N(C)C(=O)C[C@H](OC(=O)[C@H](C)N(C)C(=O)CCSSCC(=O)NCCNC(=O)CC[C@H]1C(=O)N[C@@H](Cc3ccc(O)cc3)C(=O)N[C@H](Cc3c[nH]c4ccccc34)C(=O)N[C@@H](CCCCN)C(=O)N[C@@H]([C@@H](C)O)C(=O)N[C@@H](Cc3ccccc3)C(=O)N1C)[C@]1(C)O[C@H]1[C@H](C)[C@@H]1C[C@@](O)(NC(=O)O1)[C@H](OC)/C=C/C=C(\C)C2 [Conjugate 30] |  |  | 2020 nM | 470 nM
COc1cc2cc(c1Cl)N(C)C(=O)C[C@H](OC(=O)[C@H](C)N(C)C(=O)CCSSCCNC(=O)[C@@H](NC(=O)[C@@H]1CSSC[C@H](NC(=O)[C@H](N)Cc3ccccc3)C(=O)N[C@@H](Cc3csc4ccccc34)C(=O)N[C@H](Cc3c[nH]c4ccccc34)C(=O)N[C@@H](CCCCN)C(=O)N[C@@H]([C@@H](C)O)C(=O)N1)[C@@H](C)O)[C@]1(C)O[C@H]1[C@H](C)[C@@H]1C[C@@](O)(NC(=O)O1)[C@H](OC)/C=C/C=C(\C)C2 [Conjugate 37] |  |  | 166 nM | 44 nM
COc1cc2cc(c1Cl)N(C)C(=O)C[C@H](OC(=O)[C@H](C)N(C)C(=O)CCSSCCC(=O)NCCNC(=O)[C@@H](NC(=O)[C@@H]1CSSC[C@H](NC(=O)[C@H](N)Cc3ccccc3)C(=O)N[C@@H](Cc3ccc(O)cc3)C(=O)N[C@H](Cc3c[nH]c4ccccc34)C(=O)N[C@@H](CCCCN)C(=O)N[C@@H]([C@@H](C)O)C(=O)N1)[C@@H](C)O)[C@]1(C)O[C@H]1[C@H](C)[C@@H]1C[C@@](O)(NC(=O)O1)[C@H](OC)/C=C/C=C(\C)C2 [Conjugate 43] |  |  | 2050 nM | 1160 nM
COc1cc2cc(c1Cl)N(C)C(=O)C[C@H](OC(=O)[C@H](C)N(C)C(=O)CCSSCCC(=O)NCCNC(=O)[C@H](Cc1c[nH]c3ccccc13)NC(=O)[C@@H]1CSSC[C@H](NC(=O)[C@H](N)Cc3ccccc3)C(=O)N[C@@H](Cc3ccc(O)cc3)C(=O)N[C@H](Cc3c[nH]c4ccccc34)C(=O)N[C@@H](CCCCN)C(=O)N[C@@H]([C@@H](C)O)C(=O)N1)[C@]1(C)O[C@H]1[C@H](C)[C@@H]1C[C@@](O)(NC(=O)O1)[C@H](OC)/C=C/C=C(\C)C2 [Conjugate 45] |  |  | 481 nM | 345 nM
COc1cc2cc(c1Cl)N(C)C(=O)C[C@H](OC(=O)[C@H](C)N(C)C(=O)CCSSCCC(=O)NCCOCCOCCOCCNC(=O)[C@@H](NC(=O)[C@@H]1CSSC[C@H](NC(=O)[C@H](N)Cc3ccccc3)C(=O)N[C@@H](Cc3ccc(O)cc3)CN[C@H](Cc3c[nH]c4ccccc34)C(=O)N[C@@H](CCCCN)C(=O)N[C@@H]([C@@H](C)O)C(=O)N1)[C@@H](C)O)[C@]1(C)O[C@H]1[C@H](C)[C@@H]1C[C@@](O)(NC(=O)O1)[C@H](OC)/C=C/C=C(\C)C2 [Conjugate 47] |  |  | 1270 nM | 2130 nM
COc1cc2cc(c1Cl)N(C)C(=O)C[C@H](OC(=O)[C@H](C)N(C)C(=O)CCSSCCNC(=O)[C@H](Cc1c[nH]c3ccccc13)NC(=O)[C@@H]1CSSC[C@H](NC(=O)[C@H](N)Cc3ccccc3)C(=O)N[C@@H](Cc3ccc(O)cc3)CN[C@H](Cc3c[nH]c4ccccc34)C(=O)N[C@@H](CCCCN)C(=O)N[C@@H]([C@@H](C)O)C(=O)N1)[C@]1(C)O[C@H]1[C@H](C)[C@@H]1C[C@@](O)(NC(=O)O1)[C@H](OC)/C=C/C=C(\C)C2 [Conjugate 49] |  |  | 243 nM | 69 nM
COc1cc2cc(c1Cl)N(C)C(=O)C[C@H](OC(=O)[C@H](C)N(C)C(=O)CCSSCCC(=O)NCCNC(=O)[C@@H](NC(=O)[C@@H]1CSSC[C@H](NC(=O)[C@H](N)Cc3c[nH]c4ccccc34)C(=O)N[C@@H](Cc3ccc(O)cc3)C(=O)N[C@H](Cc3c[nH]c4ccccc34)C(=O)N[C@@H](CCCCN)C(=O)N[C@@H]([C@@H](C)O)C(=O)N1)[C@@H](C)O)[C@]1(C)O[C@H]1[C@H](C)[C@@H]1C[C@@](O)(NC(=O)O1)[C@H](OC)/C=C/C=C(\C)C2 [Conjugate 51] |  |  | 238 nM | 124 nM
COc1cc2cc(c1Cl)N(C)C(=O)C[C@H](OC(=O)[C@H](C)N(C)C(=O)CCSC1CC(=O)N(CCCNC(=O)CC[C@H](NC(=O)[C@@H]3CSSC[C@H](NC(=O)[C@H](N)Cc4ccccc4)C(=O)N[C@@H](Cc4ccc(O)cc4)CN[C@H](Cc4c[nH]c5ccccc45)C(=O)N[C@@H](CCCCN)C(=O)N[C@@H]([C@@H](C)O)C(=O)N3)C(=O)NCCCN3C(=O)CC(SCCC(=O)N(C)[C@@H](C)C(=O)O[C@H]4CC(=O)N(C)c5cc(cc(OC)c5Cl)C/C(C)=C/C=C/[C@@H](OC)[C@@]5(O)C[C@H](OC(=O)N5)[C@@H](C)[C@@H]5O[C@@]45C)C3=O)C1=O)[C@]1(C)O[C@H]1[C@H](C)[C@@H]1C[C@@](O)(NC(=O)O1)[C@H](OC)/C=C/C=C(\C)C2 (stereo partly drawn) [Conjugate 53] |  |  | 175 nM | 42 nM
